Source: patent publication US6329377A, “Ketomethylene group-containing cysteine and serine protease inhibitors” (Cephalon, Inc., priority 2000, dated 2001)

Key:
Format in all cases: biochemical
Calpain I = biological target: T1, Calpain I (Homo sapiens, UniProt P07384); experiment: Rate of inactivation of calpain I (second order rate constant); details: pH 7.5, pseudo-first order conditions, read-out: Calpain Inactivation Rates
T1 construct: made in house
T1 sequence (P07384 1-714): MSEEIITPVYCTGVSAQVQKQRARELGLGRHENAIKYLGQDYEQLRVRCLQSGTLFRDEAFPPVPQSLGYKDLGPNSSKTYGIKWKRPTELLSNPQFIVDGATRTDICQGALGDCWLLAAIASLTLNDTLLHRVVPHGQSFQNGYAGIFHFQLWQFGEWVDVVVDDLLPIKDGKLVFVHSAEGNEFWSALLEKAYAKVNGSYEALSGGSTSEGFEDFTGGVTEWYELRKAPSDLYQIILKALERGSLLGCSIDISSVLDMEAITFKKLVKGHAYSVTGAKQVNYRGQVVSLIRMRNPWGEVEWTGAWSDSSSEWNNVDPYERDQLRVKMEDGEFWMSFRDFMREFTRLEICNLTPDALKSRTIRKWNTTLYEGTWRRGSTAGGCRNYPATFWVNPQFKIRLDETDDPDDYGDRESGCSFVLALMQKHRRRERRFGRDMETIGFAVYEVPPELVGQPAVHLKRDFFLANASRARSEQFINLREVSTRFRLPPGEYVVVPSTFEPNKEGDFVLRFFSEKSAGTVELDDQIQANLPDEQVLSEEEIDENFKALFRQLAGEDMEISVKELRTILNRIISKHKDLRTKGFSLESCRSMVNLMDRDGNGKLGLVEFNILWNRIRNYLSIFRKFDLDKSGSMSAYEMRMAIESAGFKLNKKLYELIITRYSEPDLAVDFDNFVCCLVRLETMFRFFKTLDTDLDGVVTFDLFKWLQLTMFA
T1 sequence (P04632 1-268 partner): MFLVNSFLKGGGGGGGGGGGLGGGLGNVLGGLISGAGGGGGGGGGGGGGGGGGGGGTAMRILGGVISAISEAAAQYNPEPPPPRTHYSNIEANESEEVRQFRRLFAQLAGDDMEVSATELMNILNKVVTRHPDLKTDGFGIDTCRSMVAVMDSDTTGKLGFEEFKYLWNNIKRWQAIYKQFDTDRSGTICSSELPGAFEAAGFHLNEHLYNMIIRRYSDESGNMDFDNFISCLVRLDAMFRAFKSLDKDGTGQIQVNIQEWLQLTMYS
Experimental: (§1) To evaluate inhibitory activity, stock solutions (40 times concentrated) of each compound to be tested were prepared in 100% anhydrous DMSO and 5 μL of each inhibitor preparation were aliquoted into each of three wells of a 96-well plate. Calpain I, prepared by a modification of the method of W. J. Lee et al. (Biochem. Internatl. 22: 163-171 (1990)), was diluted into assay buffer (i.e., 50 mM Tris, 50 mM NaCl, 1 mM EDTA, 1 mM EGTA, and 5 mM-mercaptoethanol, pH 7.5 including 0.2 mM Succ-Leu-Tyr-MNA) and 175 μL aliquoted into the same wells containing the independent inhibitor stocks as well as to positive control wells containing 5 μL DMSO, but no compound. To start the reaction, 20 μL of 50 mM CaCl2 in assay buffer was added to all wells of the plate, excepting three, which were used as background signal baseline controls. Substrate hydrolysis was monitored every 5 minutes for a total of 30 minutes using a Fluoroskan II fluorescence plate reader. Substrate hydrolysis in the absence of inhibitor was linear for up to 15 minutes.
Inhibition of calpain I activity was calculated as the percent decrease in the rate of substrate (S) hydrolysis in the presence of inhibitor (I) relative to the rate in its absence (o). Comparison between the inhibited and control rates was made within the linear range for substrate hydrolysis. For screening, compounds were tested at 10 μM. Compounds having 50% inhibition at 10 μM were considered active. […] The results were plotted as % inhibition versus log inhibitor concentration and the IC50 was calculated from linear regression of the data. Apparent second order rate constants were determined from analysis of reaction progress curves under pseudo-first order conditions. Each determination represents the means of three or more independent single cuvette analyses continually monitored via a Perkin-Elmer LS50B spectrofluorimeter. […]
where y is the product formed at time t. […] The apparent second order rate constant kapp was determined as Kobs /[I]. […]

α-chymotrypsin = biological target: T2, α-chymotrypsin (Bos taurus, UniProt P00766); experiment: Inhibition of α-chymotrypsin; details: pH 7.5, 10 μM, 0.03 mM Succ-Ala-Ala-Pro-Phe-AMC, read-out: Chymotrypsin % I @
T2 construct: purchased Sigma Chem. Co. C-3142
Experimental: as §1
(§2) Inhibition of calpain I activity was calculated as the percent decrease in the rate of substrate (S) hydrolysis in the presence of inhibitor (I) relative to the rate in its absence (o). Comparison between the inhibited and control rates was made within the linear range for substrate hydrolysis. For screening, compounds were tested at 10 μM. Compounds having 50% inhibition at 10 μM were considered active. The IC50s of inhibitors (concentration yielding 50% inhibition) were determined from the percent decrease in the rates of substrate hydrolysis in the presence of five to seven different concentrations of the test compound. The results were plotted as % inhibition versus log inhibitor concentration and the IC50 was calculated from linear regression of the data. Apparent second order rate constants were determined from analysis of reaction progress curves under pseudo-first order conditions. Each determination represents the means of three or more independent single cuvette analyses continually monitored via a Perkin-Elmer LS50B spectrofluorimeter. The rate of inhibition of hydrolysis was obtained by fitting the curve to the exponential equation (1):
(§3) Additionally, because α-chymotrypsin is not a calcium sensitive enzyme and is constitutively active, following addition of inhibitor stocks to the 96 well plates, 100 μl of a 2-fold concentrated stock of enzyme in dilution buffer was first added and the reaction started by addition of 100 μl of a 2-fold concentrated stock of substrate in assay buffer. Substrate hydrolysis was monitored every 5 minutes up to 30 minutes using a Fluoroskan II ([…]).

thrombin = biological target: T3, thrombin (Homo sapiens, UniProt P00734); experiment: Inhibition of thrombin; details: 25 μM Bz-Phe-Val-Arg-AMC, pH 7.5, read-out: Thrombin % I @ 10 uM
T3 construct: purchased Sigma Chem. Co. T-7009
Experimental: as §1, §2, §3
Inhibition of thrombin (Sigma Chem. Co. Cat. #T-7009) was evaluated as described for chymotrypsin except that the assay was performed in 50 mM Tris, 10 mM CaCl2, pH 7.5 and the substrate was 25 μM Bz-Phe-Val-Arg-AMC (Bachem cat#I-1080).

kinact/KI (Calpain I) [M⁻¹ s⁻¹] | inhibition at 10 µM (α-chymotrypsin) [%] | inhibition at 10 µM (thrombin) [%] | SMILES
75600 | 98 | 9 | CC(C)CC(CC(=O)C1c2ccccc2Oc2ccccc21)C(=O)NC(Cc1ccccc1)C(=O)CF (racemic) [Compound 14b, Xanthene-COCH2 CH(iBu)CO-Phe-CH2 F]
5800 | 33 | 0 | CCC(C(=O)CC(CC(C)C)C(=O)NC(Cc1ccccc1)C(=O)CF)c1ccccc1 (stereo not drawn) [Compound 14a, CH3 CH2 CH(Ph)COCH2 CH(iBu)CO-Phe-CH2 F]
16800 | 82 | 0 | CC(C)CC(CC(=O)[C@H](CC(C)C)NC(=O)OCc1ccccc1)C(=O)NC(Cc1ccccc1)C(=O)CF (stereo partly drawn) [Compound 14c, Z-Leu-CH2 CH(iBu)CO-Phe-CH2 F]
